Experimental data published in patent US6235284A, “Synthetic polypeptides belonging to the hepatitis C virus (HCV) and which can be used especially for detecting the latter” (Bio Merieux, priority 1992, dated 2001).

Tested on: anti-HCV antibodies (HCV-positive sera)
Assay: ELISA detection of anti-HCV antibodies in HCV-positive sera with adsorbed peptides
Format: binding, human
Procedure: The reactivity of these three peptides towards the sera of individuals infected with the hepatitis C virus, termed (HCV) positive, was evaluated in an ELISA test according to the procedure described below.
Detection of anti-HCV Antibodies by ELISA
The wells of a microtiter plate of "NUNC MAXISORB™" trademark are saturated with 100 μl of a solution containing the peptide or a mixture of peptides (10 μg/ml) for 2 hours at 37° C. The plate is then emptied, then washed with a wash buffer containing 0.05% TWEEN™ 20(polysorbate 20). The wells are saturated with 100 μl of wash buffer supplemented with 10% goat serum (v/v), then incubated for 30 minutes at 37° C., then washed again as above. The sera to be analyzed are diluted to the appropriate dilution with saturation buffer. The incubation of the sera is 1 hour at 37° C. The wells are again washed. The solution of conjugate (goat IgG to human IgG labelled with peroxidase) at a dilution of 1/1000 in the saturation buffer is then added and the incubation lasts for 90 minutes at 37° C. After washing, the solution of orthophenylenediamine substrate is added. After 10 minutes, the reaction is stopped with 50 μl of H2 SO4 and the optical density is read at 492 nm. It should be noted that all the tests were carried out in duplicate.
For that, the different peptides are adsorbed on the microplates at a concentration of 10 μg/ml and the sera are used at 1/100 dilution.
The values obtained, which are collated in Table 1 below, correspond to the optical density (OD) multiplied by 10^3, at 492 nm.
For each serum the experiment was carried out in duplicate. The **** are values outside the upper scale.
The different peptides are absorbed onto microplates at a concentration of 10 μg/ml and the sera are used at the dilution stated.
The values obtained, which are collated in Table 2 below, correspond to the optical density at 492 nm. All the experiments were carried out in duplicate.
Each serum was, in a first instance, tested at the dilution 1/100.
The values given correspond to the optical density read at 492 nm multiplied by the factor 10^3.

K22Y: peptide corresponding to the amino acid sequence 12 to 35 of the CORE protein (KRNTNRRPQDVKFPGGGQIVGGVY)
optical density at 492 nm (Table 4, serum A 8, 1/1000): 431 OD × 10^3 | optical density at 492 nm (Table 4, serum A 8, 1/10,000): 56 OD × 10^3 | optical density at 492 nm (Table 4, serum A 9, 1/100): 2152 OD × 10^3 | optical density at 492 nm (Table 4, serum A 9, 1/1000): 282 OD × 10^3 | optical density at 492 nm (Table 4, serum A 9, 1/10,000): 43 OD × 10^3 | optical density at 492 nm (Table 4, serum A 10, 1/100): 2114 OD × 10^3 | optical density at 492 nm (Table 4, serum A 10, 1/1000): 207 OD × 10^3 | optical density at 492 nm (Table 4, serum A 10, 1/10,000): 26 OD × 10^3 | optical density at 492 nm (Table 4, serum A 11, 1/100): 1878 OD × 10^3 | optical density at 492 nm (Table 4, serum A 11, 1/1000): 212 OD × 10^3 | optical density at 492 nm (Table 4, serum A 11, 1/10,000): 31 OD × 10^3 | optical density at 492 nm (Table 4, serum A 12, 1/1000): 646 OD × 10^3 | optical density at 492 nm (Table 4, serum A 12, 1/10,000): 62 OD × 10^3 | optical density at 492 nm (Table 4, serum B 3, 1/100): 2033 OD × 10^3 | optical density at 492 nm (Table 4, serum P 1, 1/100): 435 OD × 10^3 | optical density at 492 nm (Table 4, serum P 2, 1/100): 666 OD × 10^3 | optical density at 492 nm (Table 4, serum P 3, 1/100): 1031 OD × 10^3 | optical density at 492 nm (Table 4, serum P 4, 1/1000): 1959 OD × 10^3 | optical density at 492 nm (Table 4, serum P 4, 1/10,000): 300 OD × 10^3 | optical density at 492 nm (Table 4, serum P 5, 1/10,000): 394 OD × 10^3 | optical density at 492 nm (Table 4, serum P 7, 1/10,000): 1487 OD × 10^3 | optical density at 492 nm (Table 4, serum P 8, 1/1000): 2257 OD × 10^3 | optical density at 492 nm (Table 4, serum P 8, 1/10,000): 335 OD × 10^3 | optical density at 492 nm (Table 4, serum P 10, 1/100): 66 OD × 10^3 | optical density at 492 nm (Table 4, serum P 14, 1/10,000): 398 OD × 10^3 | optical density at 492 nm (Table 4, serum P 16, 1/1000): 610 OD × 10^3 | optical density at 492 nm (Table 4, serum P 16, 1/10,000): 75 OD × 10^3 | optical density at 492 nm (Table 4, serum P 17, 1/100): 1930 OD × 10^3 | optical density at 492 nm (Table 4, serum P 23, 1/100): 125 OD × 10^3 | optical density at 492 nm (Table 4, serum P 24, 1/100): 735 OD × 10^3 | optical density at 492 nm (Table 4, serum P 29, 1/100): 310 OD × 10^3 | optical density at 492 nm (Table 4, serum P 30, 1/100): 1805 OD × 10^3

K32G: peptide corresponding to the amino acid sequence 12 to 45 of the CORE protein (KRNTNRRPQDVKFPGGGQIVGGVYLLPRRGPTLG)
optical density at 492 nm (Table 5, serum A8, 1/10,000): 666 OD × 10^3 | optical density at 492 nm (Table 5, serum A 9, 1/1000): 1675 OD × 10^3 | optical density at 492 nm (Table 5, serum A 9, 1/10,000): 229 OD × 10^3 | optical density at 492 nm (Table 5, serum A11, 1/1000): 2108 OD × 10^3 | optical density at 492 nm (Table 5, serum A11, 1/10,000): 343 OD × 10^3 | optical density at 492 nm (Table 5, serum A12, 1/10,000): 598 OD × 10^3 | optical density at 492 nm (Table 5, serum A13, 1/10,000): 1247 OD × 10^3 | optical density at 492 nm (Table 5, serum A14, 1/1000): 998 OD × 10^3 | optical density at 492 nm (Table 5, serum A14, 1/10,000): 103 OD × 10^3 | optical density at 492 nm (Table 5, serum A15, 1/10,000): 715 OD × 10^3 | optical density at 492 nm (Table 5, serum A19, 1/10,000): 594 OD × 10^3 | optical density at 492 nm (Table 5, serum A21, 1/1000): 993 OD × 10^3 | optical density at 492 nm (Table 5, serum A21, 1/10,000): 123 OD × 10^3 | optical density at 492 nm (Table 5, serum A22, 1/1000): 876 OD × 10^3 | optical density at 492 nm (Table 5, serum A22, 1/10,000): 129 OD × 10^3 | optical density at 492 nm (Table 5, serum A23, 1/10,000): 774 OD × 10^3 | reactivity towards HCV-positive sera (in words): little or no difference is observed in reactivity
